What all share (assay): inhibition of tumour cell growth, NCI panel, 48 h
The subject of assay [1] is SK-MEL-28.
Assay [2] concerns A498.
Assay [3] relates to SK-MEL-5.
Assay [4] deals with SF-539.
The test system of assay [5] is A549.
The subject of assay [6] is COLO 205.
Assay [7] concerns 786-0.
In assay [8] the test system is UO-31.
Assay [9] concerns NCI-H522.
Assay [10] deals with HOP-92.
Assay [11] relates to TK-10.
The subject of assay [12] is HT-29.
Assay [13] has as its system SW-620.
The test system of assay [14] is Malme-3M.
For assay [15], the system named is SK-OV-3.
The test system of assay [16] is MDA-N.
The test system of assay [17] is NCI/ADR-RES.
The subject of assay [18] is MDA-MB-435.

Structures are written as SMILES.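 Test compounds were applied to cells in 96-well plates for 48 hours at 5 doses. GI50 = concentration required for 50% inhibition of growth.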 Calls of active or inactive are those of the source. Rule as the data show it: active = GI50 up to about 1.1 µM and inactive = higher.

In the case of `C/C(=N\NC(=N)N)C(CN(CC(C)C)CC(C)C)C(=O)Nc1ccc(C)cc1C` (centres undefined), the GI50 in assay [1], in [2], in assay [3], in assay [4], in assay [5] and in [6] was > 100 µM (inactive) throughout. The GI50 in assay [7] was > 100 µM (inactive); in assay [8], 54.7 µM (inactive); in [9], > 100 µM (inactive); in [10], 59.2 µM (inactive); in assay [11], > 100 µM (inactive); in assay [12], > 100 µM (inactive). The GI50 in assay [13], in assay [14] and in assay [15] was > 100 µM (inactive) each time.
As for `O=c1c2ccccc2c(=O)n2n1-c1cccc(c1)CSSCc1cccc-2c1`, the GI50 in [1], in assay [2], in assay [3], in [4], in assay [5] and in assay [6] was > 10 µM (inactive) each time. The GI50 in [7] is 58.3 µM (inactive); in assay [8], > 10 µM (inactive); in assay [9], > 10 µM (inactive); in assay [10], 5.9 µM (inactive); in assay [11] it was > 10 µM (inactive); in assay [12], > 10 µM (inactive). Moreover, the GI50 is > 10 µM (inactive) in assay [13], > 10 µM (inactive) in assay [14] and 52.8 µM (inactive) in assay [15].
For the molecule `NC(=O)c1ncn(C2OC(CO)C(O)C2O)c1O` (centres undefined), the GI50 in [1] is > 100 µM (inactive); in assay [2] it was > 100 µM (inactive); in assay [4] it was > 100 µM (inactive); in assay [5] it was > 100 µM (inactive); in assay [7], > 100 µM (inactive); in [8], 61.9 µM (inactive). Besides, the GI50 in assay [10] is 46.8 µM (inactive); in assay [11] it was > 100 µM (inactive); in [12], 4.69 µM (inactive); in [13], 44.4 µM (inactive); in [14], > 100 µM (inactive).
For `CC(=O)NNc1nc(C)c(C(=O)/C=C/c2ccccc2Cl)s1`, the GI50 in assay [1], in assay [2], in assay [3], in assay [4], in assay [5] and in [6] was > 100 µM (inactive) throughout. Besides, the GI50 in [7] was > 100 µM (inactive); in [8] it was > 100 µM (inactive); in assay [9] it was 43.5 µM (inactive); in assay [10] it was > 100 µM (inactive); in assay [11], > 100 µM (inactive); in assay [12], > 100 µM (inactive). Also, the GI50 in assay [13], in assay [14] and in assay [15] was > 100 µM (inactive) throughout.
With `NNC(=O)C(=O)N/N=C(\CCC(=O)Nc1ccc(Cl)cc1)Cc1nc2ccccc2s1`, the GI50 in assay [1] was 71.8 µM (inactive); in [2] it was 52 µM (inactive); in assay [3] it was 21.8 µM (inactive); in assay [4], 32.7 µM (inactive); in assay [5] it was 45.4 µM (inactive); in [6], 32.7 µM (inactive). The GI50 was 17.3 µM (inactive) in [7]; 11.9 µM (inactive) in assay [8]; 15.5 µM (inactive) in assay [9]; 45.5 µM (inactive) in assay [10]; 56.1 µM (inactive) in assay [11]; 44.8 µM (inactive) in assay [12]. Further, the GI50 was 35.3 µM (inactive) in assay [13], 44.7 µM (inactive) in [14] and 27.3 µM (inactive) in assay [15].
Regarding `Cc1cc2[nH]c3c(C#N)c(-c4ccccc4)c(CN4CCOCC4)c(=O)n3c2cc1C`, the GI50 in [1], in assay [2], in assay [4], in assay [5], in [6] and in assay [7] was > 100 µM (inactive) throughout. The GI50 in [8], in assay [9], in assay [11], in [16], in assay [17] and in assay [13] was > 100 µM (inactive) each time. The GI50 in assay [18], in assay [14] and in [15] was > 100 µM (inactive) throughout.
In the case of `NC(CCCCN/C=C1/N=C(c2ccccc2)OC1=O)C(=O)O` (centres undefined), the GI50 in assay [1], in [2], in assay [3], in [4], in [5] and in assay [6] was > 100 µM (inactive) throughout. Further, the GI50 in assay [7] is > 100 µM (inactive); in assay [8], > 100 µM (inactive); in assay [9], 26.1 µM (inactive); in [10] it was > 100 µM (inactive); in [11], > 100 µM (inactive); in [12] it was > 100 µM (inactive). For the same molecule, the GI50 in [13], in [14] and in [15] was > 100 µM (inactive) throughout.
With `O=C1C(c2ccccc2)=C(c2ccccc2)C(c2ccc(Cc3ccc(C4=C(c5ccccc5)C(=O)C(c5ccccc5)=C4c4ccccc4)cc3)cc2)=C1c1ccccc1`, the GI50 in [2], in [3], in assay [4], in assay [5], in assay [6] and in assay [7] was > 100 µM (inactive) each time. Further, the GI50 was > 100 µM (inactive) in [8]; > 100 µM (inactive) in assay [9]; > 100 µM (inactive) in assay [10]; 48.6 µM (inactive) in [11]; > 100 µM (inactive) in [12]; > 100 µM (inactive) in [13]. For the same molecule, the GI50 in assay [14] is 74.1 µM (inactive); in assay [15], > 100 µM (inactive).
Regarding `Cc1ccc2nc3c(C)cc(=O)cc-3sc2c1`, the GI50 in assay [1] was 25.9 µM (inactive); in [3], 15.5 µM (inactive); in assay [4] it was 18.9 µM (inactive); in assay [5] it was 20.1 µM (inactive); in assay [6], 27.6 µM (inactive); in assay [7], 18.7 µM (inactive). Further, the GI50 was 32 µM (inactive) in assay [8]; 17.8 µM (inactive) in [9]; 34.2 µM (inactive) in [10]; 22.7 µM (inactive) in [11]; 36.2 µM (inactive) in assay [12]; 17.2 µM (inactive) in assay [13]. For the same molecule, the GI50 in assay [14] is 27.3 µM (inactive); in assay [15], 59.6 µM (inactive).
With `O=C(CC1C(=O)Nc2ccccc2[S+]1[O-])Nc1ccc(Cl)cc1` (centres undefined), the GI50 in assay [1] was > 100 µM (inactive); in assay [4] it was 23.7 µM (inactive); in assay [5], > 100 µM (inactive); in assay [6], > 100 µM (inactive); in assay [7], 39 µM (inactive); in [8], 35.1 µM (inactive). Further, the GI50 in assay [9] is > 100 µM (inactive); in [10], 29 µM (inactive); in assay [11], > 100 µM (inactive); in assay [12], > 100 µM (inactive); in assay [13], > 100 µM (inactive); in [14], 98.2 µM (inactive). In addition, the GI50 in assay [15] was 30.1 µM (inactive).
For the molecule `CCCCCCCCCCCCOC(=N)N1CCOCC1`, the GI50 in [1] was 12.2 µM (inactive); in assay [2] it was 6.59 µM (inactive); in assay [3] it was 11 µM (inactive); in assay [4], 0.982 µM (active); in [5], 15.8 µM (inactive); in [6], 1.75 µM (inactive). Further, the GI50 in [7] is 14.1 µM (inactive); in assay [8] it was 13.5 µM (inactive); in assay [9] it was 14.6 µM (inactive); in assay [10], 1.32 µM (inactive); in assay [11], 16.8 µM (inactive); in assay [12], 1.82 µM (inactive). Moreover, the GI50 was 4.11 µM (inactive) in [13], 19 µM (inactive) in assay [14] and 17 µM (inactive) in [15].
Consider `CCN(CC)C(=S)N/N=C(\C)c1ccccc1O`, for which the GI50 in assay [1] is 23.4 µM (inactive); in [2] it was 20.5 µM (inactive); in assay [3], 10.7 µM (inactive); in assay [4], 18 µM (inactive); in assay [5], 11.4 µM (inactive); in [6], 40.9 µM (inactive). For the same molecule, the GI50 in assay [7] is 26.2 µM (inactive); in assay [8], 14.3 µM (inactive); in assay [9] it was 8.57 µM (inactive); in [11] it was 62.1 µM (inactive); in [12], 19.5 µM (inactive); in assay [13], 22.9 µM (inactive). The GI50 in assay [14] was 26.4 µM (inactive); in [15], 33.7 µM (inactive).
`Cn1cnc2[nH]c(=O)[nH]c(=S)c21`: the GI50 in [2], in [3], in [4], in assay [5], in [6] and in [7] was > 100 µM (inactive) throughout. In addition, the GI50 in assay [8], in assay [9], in assay [10], in assay [11], in assay [12] and in assay [13] was > 100 µM (inactive) throughout. Also, the GI50 in [14] and in assay [15] was > 100 µM (inactive) throughout.
Regarding `CN(C)CCNC(=O)c1c2ccccc2cc2ccccc12`, the GI50 was 25.5 µM (inactive) in assay [1]; 31.5 µM (inactive) in assay [2]; 16.9 µM (inactive) in assay [3]; 32.7 µM (inactive) in assay [4]; 34.6 µM (inactive) in assay [5]; 18.2 µM (inactive) in [6]. The GI50 in assay [7] was 57 µM (inactive); in assay [8], 26.2 µM (inactive); in [10] it was 60.4 µM (inactive); in assay [11], 30.5 µM (inactive); in assay [12] it was 39.1 µM (inactive); in assay [13] it was 34.4 µM (inactive). Also, the GI50 in assay [14] is 34.1 µM (inactive); in [15], > 100 µM (inactive).

These data come from ChEMBL document CHEMBL1201862, “PubChem BioAssay data set” (2004).
